Values of other authors, collected in PMC4931877 (The Journal of Pharmacology and Experimental Therapeutics, 2016).

Test system: γ-secretase
Conditions: ref Fleisher et al., 2008; Coric et al., 2012; Doody et al., 2013; cited from earlier work

| SMILES | outcome of mild-moderate AD clinical trials |
| --- | --- |
| NC(=O)[C@@H](CCC(F)(F)F)N(Cc1ccc(-c2ncon2)cc1F)S(=O)(=O)c1ccc(Cl)cc1 [BMS-708163, (2R)-2-[(4-chlorophenyl)sulfonyl-[[2-fluoro-4-(1,2,4-oxadiazol-3-yl)phenyl]methyl]amino]-5,5,5-trifluoropentanamide] | Notch-related nonmelanoma skin cancers and/or progression and worsening of cognitive measures |
| CC(C)[C@H](O)C(=O)N[C@@H](C)C(=O)N[C@@H]1C(=O)N(C)CCc2ccccc21 [LY450139] | Notch-related nonmelanoma skin cancers and/or progression and worsening of cognitive measures |
